According to patent US10434079B2, “Compositions and methods for the treatment of fatty acid metabolism disorders” (The Children's Hospital of Philadelphia, priority 2013, dated 2019):

Experiments:
VLCAD = target: T1, VLCAD (Mus musculus, UniProt P50544); experiment: VLCAD activity assay (ferricenium) in liver homogenates from injected ob/ob mice
T1 sequence (P50544 42-656): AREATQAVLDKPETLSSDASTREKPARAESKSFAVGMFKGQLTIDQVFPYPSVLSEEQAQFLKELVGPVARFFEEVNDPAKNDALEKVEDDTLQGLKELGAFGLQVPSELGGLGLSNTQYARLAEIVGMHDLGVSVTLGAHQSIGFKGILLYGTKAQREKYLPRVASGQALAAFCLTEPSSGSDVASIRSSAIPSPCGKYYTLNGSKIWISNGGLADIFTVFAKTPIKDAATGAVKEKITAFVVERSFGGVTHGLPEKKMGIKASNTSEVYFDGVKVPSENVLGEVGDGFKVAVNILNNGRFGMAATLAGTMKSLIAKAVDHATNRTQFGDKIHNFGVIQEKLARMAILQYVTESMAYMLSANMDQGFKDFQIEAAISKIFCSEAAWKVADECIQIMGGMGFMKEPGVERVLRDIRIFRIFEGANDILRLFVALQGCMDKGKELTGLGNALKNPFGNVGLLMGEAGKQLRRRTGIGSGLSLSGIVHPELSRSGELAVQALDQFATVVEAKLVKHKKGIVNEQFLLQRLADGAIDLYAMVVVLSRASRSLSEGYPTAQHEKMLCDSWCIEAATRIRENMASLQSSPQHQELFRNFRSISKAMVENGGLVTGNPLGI

[1] = system: β-oxidation of fatty acids; experiment: Measurement of β-oxidation: 3H-labeled palmitoyl-CoA oxidation in liver homogenates of treated ob/ob mice; format: in vivo, mouse; settings: GSNO-injected ob/ob mice (i.p.)
Procedure: (1957) J. Biol. Chem., 226:497-509). The aqueous phase was collected, and proteins were precipitated by the addition of 10% TCA followed by centrifugation at 8000 g for 10 minutes at room temperature. Remaining radioactive palmitoyl-CoA was eliminated by strong anion exchange chromatography with AG 1-X8 formate resin (Life Science). The effluent containing the ^3H2O was collected and used for scintillation counting. Each experiment was coupled with a background measurement, a sample containing no protein. The background count number was subtracted from each measurement corresponding to analysis samples. Leptin-deficient mice develop liver steatosis spontaneously under normal chow diet starting at 4 to 5 weeks of life that is characterized by a diminished rate of palmitate oxidation and accumulation of fat droplets in the form of triglycerides within the hepatocytes (Brix et al. (2002) Mol. Genet. Metab., 75:219-226; de Oliveira et al. (2008) J. Am. Coll. Nutr., 27:299-305). […] This significant reduction in the rate of palmitoyl-CoA oxidation indicated a deficiency in mitochondrial β-oxidation of fatty acids. […]

wild-type VLCAD = target: T2, wild-type VLCAD (Mus musculus, UniProt P50544); experiment: Hepa 1 to 6 cells expressing FLAG-tagged wild-type VLCAD exposed to GSNO; format: cell-based
T2 construct: 3xFLAG (C); host or cells: Hepa 1 to 6 cells
T2 sequence (P50544 42-656): T1 sequence (P50544 42-656)
Procedure: Liver homogenate (final concentration of 0.03 μg/μl) or cell lysate (final concentration of 0.09 μg/μl) in 100 mM potassium phosphate buffer (pH 7.2) containing 0.2% Triton X-100 and 0.1 mM EDTA was mixed with […] ferricenium ion, and the reaction was initiated by the addition of palmitoyl-CoA (the final volume of the assay was 130 μl). […] At least nine concentrations of palmitoyl-CoA, ranging from 0.015 to 2 mM, were used for the experimental determination of the apparent Vmax and KM of VLCAD for each animal. […] A unit of enzyme activity is defined as the amount of enzyme that causes the reduction of […] of ferricenium per minute at room temperature (ε=4.3 mM^−1 cm^−1 at 300 nm) (Izai et al. (1992) J. Biol. Chem., 267:1027-1033). […] The measurement of specific activity of VLCAD in liver homogenates (FIG. 2H) and cell lysates (FIG. 4) was performed in the presence of 0.25 and 0.125 mM palmitoyl-CoA, respectively.
Hepa 1 to 6 cells were grown in Dulbecco's modified Eagle's medium (DMEM) containing 10% fetal bovine serum, 2 mM glutamine, penicillin (100 U/ml), and streptomycin ([…]) at 37° C. in air with 5% CO2. Cells were plated at a density of 5×10^4 cells/cm^2 and cultured under normal conditions for 24 hours. Cells were transfected with FLAG®-tagged wild-type VLCAD or FLAG®-tagged C238A VLCAD with Lipofectamine® 2000 reagent (Life Technologies) according to the protocol provided by the manufacturer. Forty-eight hours after transfection, the growth medium was replaced with serum-free DMEM, and […] freshly prepared GSNO was added for 30 minutes, after which the cells were extensively washed with PBS. Cell lysates were obtained immediately or 60, 120, and 240 minutes after the removal of GSNO. The samples were protected from UV light exposure. Lysates were assayed for protein concentration, and equal amounts of protein per sample were used for organic mercury-assisted capture.

[2] = 60, 120, 240 minutes after removal of GSNO and washing

SMILES: N[C@@H](CCC(=O)N[C@@H](CSN=O)C(=O)NCC(=O)O)C(=O)O [GSNO, S-nitrosoglutathione]
- acyl dehydrogenase-mediated oxidation of palmitoyl-CoA (VLCAD; GSNO-treated ob/ob mouse liver): increase
- apparent KM in PBS-injected ob/ob homogenates relative to wild-type and GSNO-injected ob/ob mice (VLCAD; liver homogenates): more than fivefold higher
- palmitoyl-CoA oxidation rate compared with PBS-injected ob/ob mice [1]: significantly increased rate
- abundance of S-nitrosylated VLCAD after removal of GSNO (wild-type VLCAD; [2]): declined over time
- enzymatic-specific activity after removal of GSNO (wild-type VLCAD; [2]): declined over time
- VLCAD-specific activity (wild-type VLCAD; GSNO treatment, 0.125 mM palmitoyl-CoA): significantly higher
